Assay [1] deals with PAF-induced platelet aggregation. The experiment in a line: Platelet aggregation assay (PAF-induced aggregation of human platelet-rich plasma). The following applies: 2 min, human PRP, PAF 1-5×10^-8 M, 37° C., 2 min. incubation, read-out: PAF Antagonism (in vitro) IC50. Format: cell-based. On the procedure: Platelet-activating factor (PAF) causes aggregation of platelets by a receptor-mediated mechanism. Therefore, PAF-induced platelet aggregation provides a simple and convenient assay to screen compounds for PAF antagonism.
Blood was centrifuged at 110×g for 15 min. and the supernatant platelet-rich plasma (PRP) carefully transferred into a polypropylene tube. Platelet-poor-plasma (PPP) was prepared by centrifuging PRP at 12,000×g for 2 min. (Beckman Microfuge B). PRP was used within 3 hr. of drawing the blood.
PAF was dissolved in chloroform:methanol (1:1, v/v) at a concentration of 2 mg/ml and stored at -70° C. An aliquot of this solution was transferred to a polypropylene tube and dried under a flow of nitrogen gas. […] This stock solution was further diluted to appropriate concentrations in Hepes-saline-BSA buffer. Collagen (Sigma) and adenosine diphosphate (ADP) (Sigma) were purchased as solutions. Test compounds were initially dissolved in dimethyl sulfoxide (DMSO) at a concentration of 50 mM and then further diluted in Hepes-saline-BSA buffer to achieve appropriate concentrations.
When an aggregating agent such as PAF is added to PRP, platelets aggregate. An aggregometer quantifies this aggregation by measuring and comparing light (infra-red) transmission through PPP and PRP. […]

The test system of assay [2] is PAF (agonist bronchospasm). The experiment in a line: PAF-induced bronchospasm in guinea pigs. Format: in vivo, Male Hartley guinea pigs. To be noted: dose 10 mg/kg oral, PAF 0.4 μg/kg i.v. Here is the method: (§1) Male Hartley guinea pigs (450-550 g) were obtained from Charles River Breeding Laboratories. The animals were fasted overnight and the following day were anesthetized with 0.9 ml/kg i.p. of dialurethane (containing 0.1 g/ml diallylbarbituric acid, 0.4 g/ml ethylurea and 0.4 g/ml urethane). The left jugular vein was cannulated for the administration of compounds. The trachea was cannulated and the animals were ventilated by a rodent respirator at 55 strokes/min. with a stroke volume of 4 ml. A side arm to the tracheal cannula was connected to a pressure transducer to obtain a continuous measure of inflation pressure. Bronchoconstriction was measured as the percent increase in inflation pressure that peaked within 5 min. after challenge with spasmogen. […] Each animal was challenged with only a single spasmogen. The effect of a compound on the bronchospasm is expressed as a percent inhibition of the increase in inflation pressure compared to the increase in a control group.

The test system of assay [3] is Histamine (agonist bronchospasm). The experiment in a line: Histamine-induced bronchospasm in guinea pigs. Format: in vivo, Male Hartley guinea pigs. The following applies: dose 1 mg/kg oral, histamine 10 ug/kg i.v. Here is the method:
as §1

As usually defined, the IC50 is the concentration at which inhibition is half-maximal.

In the case of `O=C(c1cc[n+]([O-])cc1)N1CCN(C2c3ccccc3-c3ccccc32)CC1` [Example 8], the IC50 in assay [1] came to 2500 nM.
For `CCOC(=O)N1CCC(=C2c3ccc(Cl)cc3CCc3cccnc32)CC1` [Compound 1], in assay [2], the “PAF Agonist Bronchospasm (in vivo) - oral, % Inhibition” value is below 50%. Further, the “Histamine Agonist Bronchospasm (in vivo) - oral, % Inhibition” value in assay [3] is given as above 50%.
